{
  "source": "patent US20170348252A1",
  "about": "“Preparation and Use of Ketamine Derivatives and Ketamine Modifiers in the Treatment of Pain” (priority 2016, published 2017)",
  "origin": "cited, not measured here",
  "settings": "relative to thiopental; from Anirudda Pai et al. 2007",
  "data": [
    {"compound": "CNC1(c2ccccc2Cl)CCCCC1=O", "note": "(racemic) [Ketamine, 2-(2-chlorophenyl)-2-methylamino cyclohexanone]", "values": [
      {"measurement": "lipid solubility", "result": "5-10 times that of thiopental"}
    ]}
  ]
}
